{"source": "paper PMC9481570", "about": "“A small molecule antagonist of SMN disrupts the interaction between SMN and RNAP II” (Nature Communications, 2022)", "key": {"ZGPAT": {"target": "T1, ZGPAT (Homo sapiens, UniProt Q8N5A5)", "T1 construct": "ZGPAT (aa 120–271); His (N, cleaved yes); made in house; host or cells: E. coli BL21 (DE3) Codon plus RIL", "T1 sequence (Q8N5A5 120-271)": "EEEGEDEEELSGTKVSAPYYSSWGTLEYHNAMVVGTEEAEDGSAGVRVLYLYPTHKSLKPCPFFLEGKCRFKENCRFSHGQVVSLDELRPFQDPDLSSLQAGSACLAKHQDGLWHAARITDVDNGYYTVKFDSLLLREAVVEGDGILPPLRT", "assay": "ITC binding to ZGPAT", "details": "Fig. 1c", "text": "(§1) The coding DNA fragments of following Tudor domains were cloned into pET28-MHL vector: SMN (aa 82–147), UHRF1 (aa 126–285), SMNDC1 (aa 53–130), TDRD3 (aa 554–611), SND1 (aa 650–910), TDRD2 (aa 327–420), FXR1 (aa 2–132), PHF1 (aa 28–87), SGF29 (aa 115–293), JMJD2A (aa 897–1101), 53BP1 (aa 1483–1606), SETDB1 (aa 190–410), LBR (aa 1–67), ZGPAT (aa 120–271). The coding regions of chromodomain of CBX7 (aa 8–62), PWWP domain of DNMT3A (aa 275–417), WD40 repeats of WDR5 (aa 24–334) and CW domain of ZCWPW2 (aa 21–78) were also subcloned into pET28-MHL vector to generate N-terminally His-tagged fusion protein. The MBT repeats of L3MBTL1 (aa 200–522) and L3MBTL2 (aa 170–625) were subcloned into pET28GST-LIC vector to generate N-terminally GST-His-tagged fusion protein. All the plasmids were generated by ligase independent cloning (Vazyme Biotech, C112 or ABclonal Technology, RK21020). […] The molecular weight of all protein samples was measured by mass spectrometry.\n(§2) For the ITC measurement, the concentrated proteins were diluted into 20 mM Tris-HCl, pH 7.5, 150 mM NaCl (ITC buffer); the lyophilized compounds were dissolved in the same buffer, and the pH value was adjusted by adding 2 M NaOH or 2 M HCl. […] Compound concentrations were calculated from the mass and the volume of the solvent. […]"}, "PHF1": {"target": "T2, PHF1 (Homo sapiens, UniProt O43189)", "T2 construct": "PHF1 (aa 28–87); His (N, cleaved yes); made in house; host or cells: E. coli BL21 (DE3) Codon plus RIL", "T2 sequence (O43189 28-87)": "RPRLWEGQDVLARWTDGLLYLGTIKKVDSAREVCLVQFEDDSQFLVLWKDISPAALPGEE", "assay": "ITC binding to PHF1", "details": "Fig. 1c", "text": "as §1, §2"}, "FXR1": {"target": "T3, FXR1 (Homo sapiens, UniProt P51114)", "T3 construct": "FXR1 (aa 2–132); His (N, cleaved yes); made in house; host or cells: E. coli BL21 (DE3) Codon plus RIL", "T3 sequence (P51114 2-132)": "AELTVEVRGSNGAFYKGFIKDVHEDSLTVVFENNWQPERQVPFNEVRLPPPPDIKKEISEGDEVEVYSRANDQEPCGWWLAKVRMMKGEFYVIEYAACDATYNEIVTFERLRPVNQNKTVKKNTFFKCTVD", "assay": "ITC binding to FXR1", "text": "as §1, §2"}}, "data": [{"smiles": "Cn1c2c(c(=N)c3c1CCC3)CCC2", "note": "[Compound 1, 4-methyl-2,3,4,5,6,7-hexahydrodicyclopenta[b,e]pyridin-8(1H)-imine]", "values": [{"measurement": "Kd", "setting": "ZGPAT", "value": "> 244", "unit": "µM"}, {"measurement": "Kd", "setting": "PHF1", "value": "> 244", "unit": "µM"}, {"measurement": "Kd", "setting": "FXR1; ITC, Fig. 1c", "value": "> 100", "unit": "µM"}, {"measurement": "ITC binding curve, FXR1 (in words)", "setting": "FXR1; Supplementary Fig. 2e", "value": "Weak binding"}]}]}
